Source: US9187556B2, “SEMA5B peptides and vaccines including the same” (OncoTherapy Science, Inc., priority 2011, dated 2015)

Key:
[1] = tested on: peptide-pulsed T2 cells; assay: IFN-gamma ELISPOT assay on CTLs induced with peptide-pulsed DCs; format: cell-based, human; settings: CTLs from HLA-A*0201 positive donor, compared to control wells
From the text: Monocyte-derived dendritic cells (DCs) were used as antigen-presenting cells to induce cytotoxic T lymphocyte (CTL) responses against peptides presented on human leukocyte antigen (HLA). DCs were generated in vitro as described elsewhere (Nakahara S et al., Cancer Res 2003 Jul. 15, 63(14): 4112-8). Specifically, peripheral blood mononuclear cells isolated from a normal volunteer (HLA-A*0201 positive) by Ficoll-Paque plus (Pharmacia) solution were separated by adherence to a plastic tissue culture dish (Becton Dickinson) so as to enrich them as the monocyte fraction. The monocyte-enriched population was cultured in the presence of 1000 U/ml of granulocyte-macrophage colony-stimulating factor (R&D System) and 1000 U/ml of interleukin (IL)-4 (R&D System) in AIM-V Medium (Invitrogen) containing 2% heat-inactivated autologous serum (AS). After 7 days of culture, the cytokine-induced DCs were pulsed with 20 micro g/ml of each of the synthesized peptides in the presence of 3 micro g/ml of beta 2-microglobulin for 3 hr at 37 degree C. in AIM-V Medium. The generated cells appeared to express DC-associated molecules, such as CD80, CD83, CD86 and HLA class II, on their cell surfaces (data not shown). These peptide-pulsed DCs were then inactivated by X ray-irradiated (20 Gy) and mixed at a 1:20 ratio with autologous CD8+ T cells, obtained by positive selection with CD8 Positive Isolation Kit (Dynal). These cultures were set up in 48-well plates (Corning); each well contained 1.5×10^4 peptide-pulsed DCs, 3×10^5 CD8+ T cells and 10 ng/ml of IL-7 (R&D System) in 0.5 ml of AIM-V/2% AS medium. Three days later, these cultures were supplemented with IL-2 (CHIRON) to a final concentration of 20 IU/ml. On day 7 and 14, the T cells were further stimulated with the autologous peptide-pulsed DCs. The DCs were prepared each time by the same way described above. CTLs were tested against peptide-pulsed T2 cells after the 3rd round of peptide stimulation on day 21 (Tanaka H et al., Br J Cancer 2001 Jan. 5, 84(1): 94-9; Umano Y et al., Br J Cancer 2001 Apr. 20, 84(8): 1052-7; Uchida N et al., Clin Cancer Res 2004 December 15, 10(24): 8577-86; Suda T et al., Cancer Sci 2006 May, 97(5): 411-9; Watanabe T et al., Cancer Sci 2005 August, 96(8): 498-506).
(§1) To examine specific CTL activity, interferon(IFN)-gamma enzyme-linked immunospot (ELISPOT) assay and IFN-gamma enzyme-linked immunosorbent assay (ELISA) were performed. Peptide-pulsed T2 (1×10^4/well) was prepared as stimulator cells. Cultured cells in 48-well plate, CTL lines and CTL clones were used as responder cells. IFN-gamma ELISPOT assay and IFN-gamma ELISA assay were performed under manufacture procedure.

[2] = tested on: peptide-pulsed T2 cells; assay: IFN-gamma ELISA of expanded CTL lines; format: cell-based, human; settings: target cells pulsed with corresponding peptide vs without peptide pulse
Experimental: CTLs were expanded in culture using the method similar to the one described by Riddell et al. (Walter E A et al., N Engl J Med 1995 Oct. 19, 333(16): 1038-44; Riddell S R et al., Nat Med 1996 February, 2(2): 216-23). A total of 5×10^4 CTLs were suspended in 25 ml of AIM-V/5% AS medium with 2 kinds of human B-lymphoblastoid cell lines, inactivated by Mitomycin C, in the presence of 40 ng/ml of anti-CD3 monoclonal antibody (Pharmingen). One day after initiating the cultures, 120 IU/ml of IL-2 were added to the cultures. The cultures were fed with fresh AIM-V/5% AS medium containing 30 IU/ml of IL-2 on days 5, 8 and 11 (Tanaka H et al., Br J Cancer 2001 Jan. 5, 84(1): 94-9; Umano Y et al., Br J Cancer 2001 Apr. 20, 84(8): 1052-7; Uchida N et al., Clin Cancer Res 2004 Dec. 15, 10(24): 8577-86; Suda T et al., Cancer Sci 2006 May, 97(5): 411-9; Watanabe T et al., Cancer Sci 2005 August, 96(8): 498-506).
as §1

[3] = tested on: peptide-pulsed T2 cells; assay: IFN-gamma ELISA of CTL clones established by limiting dilution; format: cell-based, human; settings: target cells pulsed with each peptide
Experimental: The dilutions were made to have 0.3, 1, and 3 CTLs/well in 96 round-bottomed micro titer plate (Nalge Nunc International). CTLs were cultured with 1×10^4 cells/well of 2 kinds of human B-lymphoblastoid cell lines, 30 ng/ml of anti-CD3 antibody, and 125 U/ml of IL-2 in a total of 150 micro 1/well of AIM-VMedium containing 5% AS. 50 micro 1/well of IL-2 were added to the medium 10 days later so to reach a final concentration of 125 U/ml IL-2. CTL activity was tested on the 14th day, and CTL clones were expanded using the same method as described above (Uchida N et al., Clin Cancer Res 2004 Dec. 15, 10(24): 8577-86; Suda T et al., Cancer Sci 2006 May, 97(5): 411-9; Watanabe T et al., Cancer Sci 2005 August, 96(8): 498-506).
as §1

[4] = tested on: COS7 cells transfected with SEMA5B and HLA-A*0201; assay: Specific CTL activity against target cells expressing SEMA5B and HLA-A*0201; format: cell-based, African green monkey
Experimental: as §1
The cDNA encoding an open reading frame of target genes or HLA-A*0201 was amplified by PCR. The PCR-amplified product was cloned into expression vector. The plasmids were transfected into COS7, which is HLA-A*0201-null cell line, using lipofectamine 2000 (Invitrogen) according to the manufacturer's recommended procedures. After 2 days from transfection, the transfected cells were harvested with versene (Invitrogen) and used as the stimulator cells (5×10^4 cells/well) for CTL activity assay.

Sequence | Peptide-specific CTL activity (IFN-gamma production) [1] | IFN-gamma production of CTL lines [2] | IFN-gamma production of CTL clones [3] | CTL activity of CTL line against COS7 cells expressing both SEMA5B and HLA-A*0201 ([4]; COS7 transfected with both full length SEMA5B and HLA-A*0201) | CTL activity of CTL line against control COS7 cells ([4]; COS7 transfected with either full length SEMA5B or HLA-A*0201)
GLLTLAVYL [SEQ ID NO: 7, 9 mer peptide derived from SEMA5B, start position 1049] | potent IFN-gamma production |  |  |  | 
LIYGVFTTNV [SEQ ID NO: 34, 10 mer peptide derived from SEMA5B, start position 370] | potent IFN-gamma production | potent IFN-gamma production | Potent IFN-gamma production |  | 
LLLPSLTLLV [SEQ ID NO: 27, 10 mer peptide derived from SEMA5B, start position 69] | potent IFN-gamma production | potent IFN-gamma production | Potent IFN-gamma production | potent CTL activity | no significant specific CTL activity was detected
LLPSLTLLV [SEQ ID NO: 5, 9 mer peptide derived from SEMA5B, start position 70] | potent IFN-gamma production | potent IFN-gamma production | Potent IFN-gamma production |  | 
MVLAGPLAV [SEQ ID NO: 8, 9 mer peptide derived from SEMA5B, start position 59; typical negative case] | not shown specific IFN-gamma production |  |  |  | 
